Reference: EPA's CvTdb concentration-time database

How the values were obtained:
[1] = system: Rat; assay: concentration in brain after dosing; conditions: 4 h; dosed: 2-Methyltetrahydrofuran; 40 mg/kg; iv; Female; Harlan Sprague Dawley
[2] = system: Rat; assay: concentration in plasma after dosing; conditions: 7 min; dosed: 2-Methyltetrahydrofuran; 40 mg/kg; iv; Male; Harlan Sprague Dawley
[3] = system: Rat; assay: concentration in plasma after dosing; conditions: 7 min; dosed: 2-Methyltetrahydrofuran; 40 mg/kg; iv; Male; Harlan Sprague Dawley; remark: listed apart in the source
[4] = system: Rat; assay: concentration in brain after dosing; conditions: 7 min; dosed: 2-Methyltetrahydrofuran; 40 mg/kg; iv; Male; Harlan Sprague Dawley
[5] = system: Rat; assay: concentration in plasma after dosing; conditions: 7 min; dosed: 2-Methyltetrahydrofuran; 40 mg/kg; iv; Male; Harlan Sprague Dawley; remark: listed apart in the source
[6] = system: Rat; assay: concentration in brain after dosing; conditions: 0.5 h; dosed: 2-Methyltetrahydrofuran; 40 mg/kg; iv; Male; Harlan Sprague Dawley
[7] = system: Rat; assay: concentration in plasma after dosing; conditions: dosed: 678-39-7, 12 mg/kg, iv, Male, F344
[8] = system: Rat; assay: concentration in plasma after dosing; conditions: dosed: Fluorotelomer alcohol 8+2, 12 mg/kg, oral, Male, Harlan Sprague Dawley
[9] = system: Rat; assay: concentration in brain after dosing; conditions: 12 h; dosed: Fluorotelomer alcohol 8+2; 80 mg/kg; oral; Female; Harlan Sprague Dawley
[10] = system: Rat; assay: concentration in plasma after dosing; conditions: dosed: 678-39-7, 12 mg/kg, iv, Male, F344; remark: listed apart in the source
[11] = system: Rat; assay: concentration in liver after dosing; conditions: 6 h; dosed: Fluorotelomer alcohol 8+2; 80 mg/kg; oral; Female; Harlan Sprague Dawley
[12] = system: Rat; assay: concentration in liver after dosing; conditions: 0.5 h; dosed: Fluorotelomer alcohol 8+2; 80 mg/kg; oral; Female; Harlan Sprague Dawley
[13] = system: Rat; assay: concentration in liver after dosing; conditions: 3 h; dosed: Fluorotelomer alcohol 8+2; 24 mg/kg; oral; Male; Harlan Sprague Dawley
[14] = system: Rat; assay: concentration in plasma after dosing; conditions: dosed: 678-39-7, 12 mg/kg, iv, Male, F344; remark: listed apart in the source
[15] = system: Rat; assay: concentration in plasma after dosing; conditions: dosed: 678-39-7, 40 mg/kg, iv, Female, Harlan Sprague-Dawley
[16] = system: Rat; assay: concentration in brain after dosing; conditions: 1 h; dosed: Fluorotelomer alcohol 8+2; 24 mg/kg; oral; Male; Harlan Sprague Dawley
[17] = system: Rat; assay: concentration in kidney after dosing; conditions: 1 h; dosed: Perfluorohexanoic Acid; 80 mg/kg; oral; Female; Harlan Sprague Dawley
[18] = system: Rat; assay: concentration in plasma after dosing; conditions: 0.75 h; dosed: Perfluorohexanoic Acid; 40 mg/kg; iv; Female; Harlan Sprague-Dawley
[19] = system: Rat; assay: concentration in plasma after dosing; conditions: 1.5 h; dosed: Perfluorohexanoic Acid; 40 mg/kg; iv; Male; F344
[20] = system: Rat; assay: concentration in kidney after dosing; conditions: 0.5 h; dosed: Perfluorohexanoic Acid; 80 mg/kg; oral; Male; Harlan Sprague Dawley
[21] = system: Rat; assay: concentration in liver after dosing; conditions: 6 h; dosed: Perfluorohexanoic Acid; 80 mg/kg; oral; Male; Harlan Sprague Dawley
[22] = system: Rat; assay: concentration in plasma after dosing; conditions: 1 h; dosed: Gemfibrozil; 4.29 mg/kg; oral; Male; Sprague-Dawley
[23] = system: Rat; assay: concentration in plasma after dosing; conditions: 0.25 h; dosed: Gemfibrozil; 50 mg/kg; oral; Male; Sprague-Dawley
[24] = system: Rat; assay: concentration in liver after dosing; conditions: 6 h; dosed: Perfluorooctane Sulfonate; 2 mg/kg; oral; Female; Harlan Sprague Dawley
[25] = system: Rat; assay: concentration in kidney after dosing; conditions: 24 h; dosed: Perfluorooctane Sulfonate; 2 mg/kg; oral; Female; Harlan Sprague Dawley
[26] = system: Rat; assay: concentration in plasma after dosing; conditions: dosed: Perfluorooctane Sulfonate, 2 mg/kg, iv, Male, F344
[27] = system: Rat; assay: concentration in plasma after dosing; conditions: dosed: Perfluorooctane Sulfonate, 2 mg/kg, iv, Female, F344
[28] = system: Rat; assay: concentration in plasma after dosing; conditions: dosed: Perfluorooctane Sulfonate, 2 mg/kg, oral, Female, Harlan Sprague Dawley
[29] = system: Rat; assay: concentration in brain after dosing; conditions: 864 h; dosed: Perfluorooctane Sulfonate; 20 mg/kg; oral; Female; F344
[30] = system: Rat; assay: concentration in kidney after dosing; conditions: 1848 h; dosed: Perfluorooctane Sulfonate; 2 mg/kg; oral; Female; Harlan Sprague Dawley
[31] = system: Rat; assay: concentration in liver after dosing; conditions: 6 h; dosed: Perfluorooctane Sulfonate; 2 mg/kg; oral; Female; Harlan Sprague Dawley; remark: listed apart in the source
[32] = system: Rat; assay: concentration in brain after dosing; conditions: 24 h; dosed: Perfluorooctane Sulfonate; 20 mg/kg; oral; Female; F344
[33] = system: Rat; assay: concentration in kidney after dosing; conditions: 1848 h; dosed: Perfluorooctane Sulfonate; 20 mg/kg; oral; Male; Harlan Sprague Dawley

CC1CCCO1 (stereo not drawn) [2-Methyltetrahydrofuran]
Conditions	concentration in brain [ng/mL]	concentration in plasma [ng/mL]
[1]	185	–
[2]	–	48100
[3]	–	53800
[4]	31000	–
[5]	–	41500
[6]	16200	–

O=C(O)CCC(F)(F)C(F)(F)C(F)(F)C(F)(F)C(F)(F)C(F)(F)C(F)(F)F [Fluorotelomer acid 7+3]
Conditions	concentration in plasma [ng/mL]
[7], 0.75 h	365
[7], 12 h	74.1
[8], 0.75 h	274
[8], 12 h	110
[10], 1 h	601
[10], 6 h	432
[14], 1 h	502
[14], 6 h	706
[15], 1 h	1350
[15], 24 h	347

Conditions	concentration in brain [ng/g]	concentration in liver [ng/g]
[9]	432	–
[11]	–	7770
[12]	–	2020
[13]	–	2680
[16]	128	–

O=C(O)C(F)(F)C(F)(F)C(F)(F)C(F)(F)C(F)(F)F [Perfluorohexanoic Acid]
Conditions	concentration in kidney [ng/g]	concentration in liver [ng/g]	concentration in plasma [ng/mL]
[17]	85800	–	–
[18]	–	–	1570
[19]	–	–	8050
[20]	69600	–	–
[21]	–	9200	–

Cc1ccc(C)c(OCCCC(C)(C)C(=O)O)c1 [Gemfibrozil]
Conditions	concentration in plasma [ng/mL]
[22]	142
[23]	79300

O=S(=O)([O-])C(F)(F)C(F)(F)C(F)(F)C(F)(F)C(F)(F)C(F)(F)C(F)(F)C(F)(F)F [Perfluorooctane Sulfonate]
Conditions	concentration in brain [ng/g]	concentration in kidney [ng/g]	concentration in liver [ng/g]
[24]	–	–	27200
[25]	–	8400	–
[29]	2730	–	–
[30]	–	2750	–
[31]	–	–	19800
[32]	7400	–	–
[33]	–	10200	–

Conditions	concentration in plasma [ng/mL]
[26], 6 h	4060
[26], 528 h	1840
[26], 3216 h	96.4
[27], 1 h	4870
[27], 528 h	2180
[28], 5 min	27.5
[28], 192 h	3830
[28], 1200 h	1210
